In paper PMC10699557, “A recombinant approach for stapled peptide discovery yields inhibitors of the RAD51 recombinase” (Chemical Science, 2023):
Entries after “also recorded” stand apart in the source; their conditions may differ. Numbered stars: 1 amine (or outer) side, 2 acyl side, 3 side chain; on linkers, the order of the positions; unused ones are H or OH. Bridge positions count the residues as written; N and C are the ends. Peptide text beside a SMILES is read from it. X1 = Nc1nc(CC[*:1])cc(CC[*:2])n1

How the values were obtained:
[1] = biological target: monomeric version of RAD51 (HumRadA22) (Pyrococcus furiosus, UniProt O74036); assay: Fluorescence polarisation (FP) competition assay: displacement of fluorescein-labelled BRC4 repeat; format: binding, archaeal RadA mutant with human Rad51 surface residues; conditions: read-out: FP competition KD, nM, Stapled; stapled product (linker DVT or DVP as in Table 1); 100 nM HumRadA22, 10 nM BRC4-fluorescein; 20 mM CHES pH 9.5, 150 mM NaCl, 0.1% BSA, 0.1% Tween-20; KD calculated from IC50; single titration, three technical replicates per point
Description: We prepared all stapled peptides from small-scale bacterial cultures as GB1/C-His8 fusions and cyclised them with the DVT linker. For peptides SP10, SP11, SP12 and SP15, correct stapling was confirmed by MS, showing a similar composition to SP2 (Fig. S15–S18 ^†). Thus, we confirm that the pseudo-dilution approach is robust in yielding almost exclusively the cyclised product, irrespective of whether a helical or non-helical motif is being constrained. To examine the effect of introducing a covalent staple on affinity, a mock reaction was done in parallel for each peptide by splitting the IMAC elution into two halves and adding DMSO to the mock control instead of the linker. TCEP (500 μM) was included in the mock reaction to maintain the peptide in linear form by preventing disulfide formation. The peptides were tested in a fluorescence polarisation (FP) assay monitoring the displacement of a fluorescently-labelled BRC4 repeat from a monomeric version of RAD51 (HumRadA22), as reported previously.[25] […]
Fluorescence polarisation competition assay
FP competition assay was a modified version of a protocol described previously. Fluorescein-labelled HsBRC4 probe for this assay was kindly provided by Dr Laurens Lindenburg (Hollfelder group, Department of Biochemistry, University of Cambridge). Black 384-well flat-bottom microplates (Corning, 3821) were used with a 40 μl final reaction volume in all measurements. Following buffer conditions were used: 20 mM CHES pH 9.5, 150 mM NaCl, 0.1% BSA, 0.1% Tween-20. Each reaction contained 100 nM HumRadA22 and 10 nM BRC4-fluorescein. Two-fold serial dilutions of stapled peptides were added to the reactions. A free probe control reaction containing only 10 nM BRC4-fluorescein was used to calibrate gain and focal height. FP measurements were performed on Pherastar FX or Clariostar Plus (BMG Labtech) plate readers equipped with an FP 485-520-520 optic modules. Binding curves were fitted using the four-parameter logistic model with a variable Hill slope using Prism software (Graphpad). Regression fitting was performed using the least squares optimisation algorithm.
KD values were estimated from the fitted IC 50 parameters using a previously reported

[2] = tested on: RAD51 foci in U2OS cells; assay: Immunofluorescence of IR-induced RAD51 foci formation; format: cell-based, human; conditions: 40 μM peptide for 1 hour, then 3 Gy IR or no radiation, 3 hours recovery, five independent experiments
Procedure: We monitored the ability of SP30 and SP31 to disrupt IR-induced RAD51 foci formation using IF. Cells were pre-incubated with the peptides or with vehicle (control), after which they were either treated with no radiation or with 3 Gy IR and imaged after a 3 hours recovery. We observed RAD51 foci in the absence of peptide and IR treatment, which likely reflects recombination events associated with the basal replicative stress of U2OS cells (Fig. 5 and S4 ^†). As expected, IR treatment of control cells leads to an apparent increase in the number of RAD51 foci (Fig. 5 and S4 ^†). […] We also tested whether a linear version of SP31 (L31) also affects IR-induced and baseline foci counts in five independent experiments (Fig. S5 and S6 ^†). […] It is possible that in some of the experiments the unstapled cysteines of L31 formed a disulfide bridge in the oxidising environment of cell culture, which protected it against proteolytic degradation, similarly to chemical stapling.
(A) Representative immunofluorescence images of U2OS cells incubated with SP30 (40 μM, SP30), SP31 (40 μM, SP31) or vehicle alone (control) for 1 hour, after which they were treated with 3 Gy ionising radiation (3 Gy 3 h) or no radiation (noIR) and allowed to recover for 3 hours. Cells were stained with α-RAD51 and Hoechst 33342 as indicated. Scale bar is 10 μm. […]

SMILES	Kd [1]	Effect on number of RAD51 foci [2]
CC(C)C[C@@H]1NC(=O)[C@H](CCCCN)NC(=O)[C@H](CCCCN)NC(=O)CNC(=O)[C@H](CO)NC(=O)[C@H](C)NC(=O)[C@H]([C@@H](C)O)NC(=O)[C@H](CO)NC(=O)[C@H](Cc2ccccc2)NC(=O)CNC(=O)[C@H](CO)NC(=O)[C@@H](NC(=O)CN)CSCCc2cc(nc(N)n2)CCSC[C@@H](C(=O)N[C@@H](CCC(N)=O)C(=O)N[C@@H](CCCCN)C(=O)N[C@@H](C)C(=O)N[C@H](C(=O)N[C@@H](CCCCN)C(=O)N[C@@H](CC(C)C)C(=O)N[C@@H](Cc2ccccc2)C(=O)N[C@@H](CO)C(=O)NCC(=O)O)C(C)C)NC(=O)[C@H](C)NC(=O)[C@H](CCC(N)=O)NC(=O)[C@H]([C@@H](C)O)NC(=O)[C@H](CO)NC(=O)[C@H](C(C)C)NC(=O)[C@H](CC(N)=O)NC1=O [SP30] (H-GCSGFSTASGKKLNVSTQACQKAVKLFSG-OH; linker 2-20 via X1)	13 nM	but not SP30, significantly reduces the number of RAD51 foci
CC(C)C[C@@H]1NC(=O)[C@H](CCCCN)NC(=O)[C@H](CCCCN)NC(=O)CNC(=O)[C@H](CO)NC(=O)[C@H](C)NC(=O)[C@H]([C@@H](C)O)NC(=O)[C@H](CO)NC(=O)[C@H](Cc2ccccc2)NC(=O)CNC(=O)[C@H](CO)NC(=O)[C@@H](NC(=O)CNC(=O)CNC(=O)[C@H](CCCNC(=N)N)NC(=O)[C@H](CCCNC(=N)N)NC(=O)[C@H](CCCNC(=N)N)NC(=O)[C@H](CCCNC(=N)N)NC(=O)[C@H](CCCNC(=N)N)NC(=O)[C@H](CCCNC(=N)N)NC(=O)[C@H](CCCNC(=N)N)NC(=O)[C@H](CCCNC(=N)N)NC(=O)[C@H](CCCNC(=N)N)NC(=O)CN)CSCCc2cc(nc(N)n2)CCSC[C@@H](C(=O)N[C@@H](CCC(N)=O)C(=O)N[C@@H](CCCCN)C(=O)N[C@@H](C)C(=O)N[C@H](C(=O)N[C@@H](CCCCN)C(=O)N[C@@H](CC(C)C)C(=O)N[C@@H](Cc2ccccc2)C(=O)N[C@@H](CO)C(=O)NCC(=O)O)C(C)C)NC(=O)[C@H](C)NC(=O)[C@H](CCC(N)=O)NC(=O)[C@H]([C@@H](C)O)NC(=O)[C@H](CO)NC(=O)[C@H](C(C)C)NC(=O)[C@H](CC(N)=O)NC1=O [SP31] (H-GRRRRRRRRRGGCSGFSTASGKKLNVSTQACQKAVKLFSG-OH; linker 13-31 via X1)	14 nM	significantly reduces the number of RAD51 foci in both IR-treated and untreated cells; also recorded: disrupts RAD51 foci formation
